Results on 20 compounds are retold here after patent publication US8859573B2, “Pyrimidinone and pyridinone compounds for use in the treatment of diseases or conditions mediated by Lp-PLA2” (Glaxo Group Limited, priority 2010, dated 2014).

Where a name gives a salt, the structure may show the parent alone.

In one assay the target is T1, Lp-PLA2 from plasma (Homo sapiens, UniProt Q13093).
T1 construct: from tissue; host or cells: pooled human plasma
T1 sequence (Q13093 22-441): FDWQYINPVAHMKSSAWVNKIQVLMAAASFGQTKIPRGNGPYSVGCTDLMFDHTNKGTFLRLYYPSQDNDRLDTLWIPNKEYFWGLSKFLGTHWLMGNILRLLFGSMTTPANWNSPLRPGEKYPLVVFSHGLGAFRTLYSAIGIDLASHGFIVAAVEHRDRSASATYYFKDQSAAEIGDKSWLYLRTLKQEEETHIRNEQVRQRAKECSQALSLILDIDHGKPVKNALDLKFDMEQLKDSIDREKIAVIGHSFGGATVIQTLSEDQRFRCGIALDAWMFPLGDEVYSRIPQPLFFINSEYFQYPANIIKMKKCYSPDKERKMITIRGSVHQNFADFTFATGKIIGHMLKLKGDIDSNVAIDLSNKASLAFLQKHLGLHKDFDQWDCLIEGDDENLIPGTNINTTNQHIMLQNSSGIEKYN
Nature of the assay: Lp-PLA2 human plasma assay (Thio-PAF assay). The class given is biochemical. As to conditions: pooled human plasma; read-out: pIC50 values in the thio-PAF assay (converted). From the text:
(3) Lipoprotein-Associated Phospholipase A2 (Lp-PLA2) Human Plasma Assay (Also Referred to as “Thio-PAF Assay”)
The human plasma assay utilizes a thioester analog of PAF (phosphatidylcholine), where hydrolysis yields to the formation of a phospholipid containing a free thiol group. The amount of thiol is quantitated continuously by reacting with CPM (7-diethylamino-3-(4′-maleimidylphenyl)-4-methylcoumarin), a maleimide which increases in fluoresence after Michael addition of thiols. This assay may detect the activity of Lp-PLA2 from plasma, as determined by specific inhibition by Lp-PLA2 inhibitors.
The thio-PAF assay was run as a quenched 15 μL assay. Compounds source plate was prepared by making 1:3 (by volume) serial dilution of the compounds into pure DMSO on 384-well microplate. 0.01 μL of compounds on compound source plate were transferred to 384 well Greiner 784076 (black) low-volume plates by ECHO liquid dispenser. 8 μL pooled human plasma, which was previously aliquoted and frozen, was added. Plates were centrifuged for 10 sec at 500 rpm. After 30 minutes preincubation, 2 μL of substrate (2.5 mM thio-PAF, 3.2 mM NEM (N-ethylmaleimide) [made fresh daily in DMSO], and 32 μM CPM [from a DMSO stock] in assay buffer of 50 mM HEPES, pH7.4, 150 mM NaCl, 1 mM CHAPS was added to 384 well Greiner 784076 (black) low-volume plates by BRAVO liquid handling station. Plates were centrifuged for 10 sec at 500 rpm. Plate was covered to protect from light and incubated for 2 min at room temperature. Reaction was quenched with 5 μL of 5% aqueous trifluoroacetic acid (TFA). Plates were covered to protect from light and incubated for 40 min at room temperature. Plates were read at ex: 380/em: 485 using-Envision microplate reader. PIC50 data, curve and QC analysis was conducted by using XLFit module in Excel.

Assay [1] has as its target T2, recombinant human Lp-PLA2 (Homo sapiens, UniProt Q13093).
T2 sequence (Q13093 22-441): T1 sequence (Q13093 22-441)
Nature of the assay: Recombinant human Lp-PLA2 assay (rhLp-PLA2, PED6 assay). The class given is biochemical. As to conditions: upper limit for pIC50 in this assay is 9.3. The source says:
(1) Recombinant Human Lp-PLA2 Assay (rhLp-PLA2) (Also Referred to as “PED6” Assay)
N-((6-(2,4-dinitrophenyl)amino)-hexanoyl)-2-(4,4-difluoro-5,7-dimethyl-4-bora-3a,4a-diaza-s-indacene-3-pentanoyl)-1-hexadecanoyl-sn-glycero-3-phosphoethanolamine, triethylammonium salt (PED6) is a commercially available fluorescently-labelled phospholipid, which is commercially available from Molecular Probes. There is a quenching para-nitro phenyl (PNP) group in the sn3 position and a Bodipy fluorescein (FL) group in the sn2 position. Upon cleavage with Lp-PLA2, the Bodipy F1 group is liberated and then may result in an increase in fluorescence. Inhibitors of Lp-PLA2 therefore prevent this cleavage and no fluorescent increase is observed.
The PED6 assay was run as an […] 10 μL assay. Compounds source plate was prepared by making 1:3 (by volume) serial dilution of the compounds into pure DMSO on 384-well microplate. Then, 0.01 μL of compounds on compound source plate were transferred into 384 well Greiner 784076 (black) plates by ECHO liquid dispenser. 5 μL of recombinant human Lp-PLA2 enzyme (2 nM rhLp-PLA2 in assay buffer of 50 mM HEPES, pH7.4, 150 mM NaCl, 1 mM CHAPS) was added to each well of the plate with compounds. Plates were centrifuged for 10 sec at 500 rpm. After 30 minutes preincubation, […] substrate (4 μM PED6 [from 5 mM DMSO stock] in assay buffer of 50 mM HEPES, pH7.4, 150 mM NaCl, 1 mM CHAPS) was added to 384 well Greiner 784076 (black) plates. Plates were centrifuged for 10 sec at 500 rpm. Plate was covered to protect from light and incubated for 20 min at room temperature. Plates were read for fluorescence intensity at ex: 480/em: 540 using ViewLux microplate imager. PIC50 data, curve and QC analysis was conducted by using XL fit module in Excel.

`N#Cc1cc(COc2ccn(Cc3cccnc3)c(=O)n2)ccc1Oc1ccc(Cl)c(C(F)(F)F)c1` [Example 4, 2-(4-Chloro-3-(trifluoromethyl)phenoxy)-5-(((2-oxo-1-(pyridin-3-ylmethyl)-1,2-dihydropyrimidin-4-yl)oxy)methyl)benzonitrile]: the IC50 on Lp-PLA2 from plasma is ≤ 100 nM; in assay [1], ≤ 1 nM.
Taken in the same sequence, the figures for `CCn1ccc(OCc2ccc(Oc3ccc(Cl)c(C(F)(F)F)c3)c(C#N)c2)nc1=O` [Example 5, 2-{[4-Chloro-3-(trifluoromethyl)phenyl]oxy}-5-{[(1-ethyl-2-oxo-1,2-dihydro-4-pyrimidinyl)oxy]methyl}benzonitrile] were ≤ 1000 nM and ≤ 1 nM.
Turning to `Cn1cc(Cn2ccc(OCc3ccc(Oc4ccc(Cl)c(C(F)(F)F)c4)cc3)nc2=O)cn1` [Example 8, 4-{[(4-{[4-Chloro-3-(trifluoromethyl)phenyl]oxy}phenyl)methyl]oxy}-1-[(1-methyl-1H-pyrazol-4-yl)methyl]-2(1H)-pyrimidinone], the IC50 was ≤ 100 nM on Lp-PLA2 from plasma and ≤ 1 nM in assay [1].
Turning to `O=c1nc(OCCc2ccc(Oc3ccc(Cl)c(C(F)(F)F)c3)cc2)ccn1Cc1ccncc1` [Example 9, 4-{[2-(4-{[4-Chloro-3-(trifluoromethyl)phenyl]oxy}phenyl)ethyl]oxy}-1-(4-pyridinylmethyl)-2(1H)-pyrimidinone], the results for the IC50 (on Lp-PLA2 from plasma; in assay [1]) were ≤ 100 nM and ≤ 1 nM, respectively.
As for `O=c1nc(OCCc2ccc(Oc3ccc(Cl)c(C(F)(F)F)c3)cc2)ccn1Cc1cccnc1` [Example 10, 4-{[2-(4-{[4-Chloro-3-(trifluoromethyl)phenyl]oxy}phenyl)ethyl]oxy}-1-(3-pyridinylmethyl)-2(1H)-pyrimidinone], the IC50 at Lp-PLA2 from plasma was ≤ 100 nM; in assay [1], ≤ 1 nM.
Take `O=c1nc(OCCc2ccc(Oc3ccc(Cl)c(C(F)(F)F)c3)cc2)ccn1Cc1cncnc1` [Example 11, 4-{[2-(4-{[4-Chloro-3-(trifluoromethyl)phenyl]oxy}phenyl)ethyl]oxy}-1-(5-pyrimidinylmethyl)-2(1H)-pyrimidinone]: the IC50 on Lp-PLA2 from plasma is ≤ 100 nM; in assay [1], ≤ 1 nM.
For `Cn1cc(Cn2ccc(OCCc3ccc(Oc4ccc(Cl)c(C(F)(F)F)c4)cc3)nc2=O)cn1` [Example 12, 4-{[2-(4-{[4-Chloro-3-(trifluoromethyl)phenyl]oxy}phenyl)ethyl]oxy}-1-[(1-methyl-1H-pyrazol-4-yl)methyl]-2(1H)-pyrimidinone] the same measures were ≤ 100 nM and ≤ 1 nM.
`Cn1cc(Cn2ccc(OCc3cnc(Oc4ccc(Cl)c(C(F)(F)F)c4)c(F)c3)nc2=O)cn1` [Example 17, 4-{[(6-{[4-Chloro-3-(trifluoromethyl)phenyl]oxy}-5-fluoro-3-pyridinyl)methyl]oxy}-1-[(1-methyl-1H-pyrazol-4-yl)methyl]-2 (1H)-pyrimidinone]: the IC50 was ≤ 100 nM at Lp-PLA2 from plasma and ≤ 1 nM in assay [1].
Regarding `Cn1cc(Cn2ccc(OCCc3cnc(Oc4ccc(Cl)c(C(F)(F)F)c4)c(F)c3)nc2=O)cn1` [Example 18, 4-{[2-(6-{[4-Chloro-3-(trifluoromethyl)phenyl]oxy}-5-fluoro-3-pyridinyl)ethyl]oxy}-1-[(1-methyl-1H-pyrazol-4-yl)methyl]-2(1H)-pyrimidinone], the IC50 was ≤ 100 nM on Lp-PLA2 from plasma and ≤ 1 nM in assay [1].
For `CCn1ccc(OCc2ccc(Oc3ccc(Cl)c(C(F)(F)F)c3)cc2)cc1=O` [Example 23, 4-{[(4-{[4-Chloro-3-(trifluoromethyl)phenyl]oxy}phenyl)methyl]oxy}-1-ethyl-2(1H)-pyridinone] the same measures were > 10000 nM and > 10 nM.
With `Cn1cc(Cn2ccc(OCc3ccc(Oc4cccc(C(F)(F)F)c4)cc3)cc2=O)cn1` [Example 25, 1-[(1-Methyl-1H-pyrazol-4-yl)methyl]-4-{[(4-{[3-(trifluoromethyl)phenyl]oxy}-phenyl)methyl]oxy}-2(1H)-pyridinone], the IC50 in assay [1] was > 10 nM.
Take `O=c1cc(OCc2ccc(Oc3ccc(Cl)c(C(F)(F)F)c3)cc2)ccn1Cc1cncnc1` [Example 26, 4-{[(4-{[4-Chloro-3-(trifluoromethyl)phenyl]oxy}phenyl)methyl]oxy}-1-(5-pyrimidinylmethyl)-2(1H)-pyridinone]: the IC50 in assay [1] was > 10 nM.
On to `Cc1ccc(Oc2ccc(COc3ccn(Cc4cnn(C)c4)c(=O)c3)cc2)cc1F` [Example 28, 4-[({4-[(3-Fluoro-4-methylphenyl)oxy]phenyl}methyl)oxy]-1-[(1-methyl-1H-pyrazol-4-yl)methyl]-2(1H)-pyridinone], for which the IC50 in assay [1] is > 10 nM.
With `COc1ncc(Cn2cc(Cl)c(OCc3ccc(Oc4ccc(F)c(F)c4)c(F)c3)nc2=O)cn1` [Example 54, 5-chloro-4-((4-(3,4-difluorophenoxy)-3-fluorobenzyl)oxy)-1-((2-methoxypyrimidin-5-yl)methyl)pyrimidin-2(1H)-one], on Lp-PLA2 from plasma, the IC50 is ≤ 100 nM.
Turning to `Cn1cc(Cn2cc(F)c(OCCc3ccc(Oc4ccc(Cl)c(C(F)(F)F)c4)cn3)nc2=O)cn1` [Example 55, 4-(2-(5-(4-chloro-3-(trifluoromethyl)phenoxy)pyridin-2-yl)ethoxy)-5-fluoro-1-((1-methyl-1H-pyrazol-4-yl)methyl)pyrimidin-2(1H)-one], the IC50 at Lp-PLA2 from plasma was ≤ 100 nM.
For the compound `Cc1cccc(Oc2ccc(CCOc3nc(=O)n(Cc4cnn(C)c4)cc3F)cc2)n1` [Example 61, 5-fluoro-1-((1-methyl-1H-pyrazol-4-yl)methyl)-4-(4-((6-methylpyridin-2-yl)oxy)phenethoxy)pyrimidin-2(1H)-one], in assay [1], the IC50 is > 10 nM.
`COc1ncc(Cn2cc(F)c(OCCc3ccc(Oc4cccc(C)n4)cc3)nc2=O)cn1` [Example 62, 5-fluoro-1-((2-methoxypyrimidin-5-yl)methyl)-4-(4-((6-methylpyridin-2-yl)oxy)phenethoxy)pyrimidin-2(1H)-one]: the IC50 in assay [1] is > 10 nM.
In the case of `CCn1cc(F)c(OCCc2ccc(Oc3cccc(C(F)(F)F)n3)cc2)nc1=O` [Example 63, 1-ethyl-5-fluoro-4-(4-((6-(trifluoromethyl)pyridin-2-yl)oxy)phenethoxy)pyrimidin-2(1H)-one, trifluoroacetic acid salt], the IC50 in assay [1] was > 10 nM.
Consider `Cn1cc(Cn2cc(F)c(OCCc3ccc(Oc4cccc(C(F)(F)F)n4)cc3)nc2=O)cn1` [Example 64, 5-fluoro-1-((1-methyl-1H-pyrazol-4-yl)methyl)-4-(4-((6-(trifluoromethyl)pyridin-2-yl)oxy)phenethoxy)pyrimidin-2(1H)-one], for which, at Lp-PLA2 from plasma, the IC50 is ≤ 1000 nM.
In the case of `COc1ncc(Cn2cc(F)c(OCCc3ccc(Oc4cccc(C(F)(F)F)n4)cc3)nc2=O)cn1` [Example 65, 5-fluoro-1-((2-methoxypyrimidin-5-yl)methyl)-4-(4-((6-(trifluoromethyl)pyridin-2-yl)oxy)phenethoxy)pyrimidin-2(1H)-one], on Lp-PLA2 from plasma, the IC50 was ≤ 1000 nM.
